What was measured:
[1] = biological target: Calcium/calmodulin-dependent protein kinase type II subunit beta (Homo sapiens) (UniProt Q13554); assay: Inhibition of human CAMK2b at 18.6 nM by HotSpot assay relative to control
[2] = biological target: Insulin receptor-related protein (Homo sapiens) (UniProt P14616); assay: Inhibition of human IRR at 18.6 nM by HotSpot assay relative to control
[3] = biological target: T1, Myotonin-protein kinase (Homo sapiens) (UniProt Q09013); assay: Inhibition of human DMPK at 1.82 nM by HotSpot assay relative to control
T1 sequence (whole entry): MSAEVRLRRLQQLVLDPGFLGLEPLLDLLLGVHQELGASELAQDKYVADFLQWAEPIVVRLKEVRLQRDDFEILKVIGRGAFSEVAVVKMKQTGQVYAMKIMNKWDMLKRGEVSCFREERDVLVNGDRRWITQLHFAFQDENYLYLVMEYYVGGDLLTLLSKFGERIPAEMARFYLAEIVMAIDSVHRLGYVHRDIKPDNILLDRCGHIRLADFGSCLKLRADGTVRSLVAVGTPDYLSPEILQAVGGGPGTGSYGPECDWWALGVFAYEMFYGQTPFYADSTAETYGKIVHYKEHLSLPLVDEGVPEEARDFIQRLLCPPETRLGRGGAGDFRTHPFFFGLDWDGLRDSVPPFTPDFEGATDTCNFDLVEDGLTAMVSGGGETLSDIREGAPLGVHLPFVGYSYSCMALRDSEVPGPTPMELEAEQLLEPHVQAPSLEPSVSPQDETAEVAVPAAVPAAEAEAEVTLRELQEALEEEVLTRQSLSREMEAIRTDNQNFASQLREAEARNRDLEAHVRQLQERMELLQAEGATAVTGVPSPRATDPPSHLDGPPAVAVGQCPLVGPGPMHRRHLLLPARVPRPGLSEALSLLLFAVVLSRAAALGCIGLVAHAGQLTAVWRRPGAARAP

[4] = biological target: Tyrosine-protein kinase Fer (Homo sapiens) (UniProt P16591); assay: Inhibition of human FER at 1.82 nM by HotSpot assay relative to control
Sequence of Tyrosine-protein kinase Fer (Homo sapiens) (P16591 whole entry, looked up): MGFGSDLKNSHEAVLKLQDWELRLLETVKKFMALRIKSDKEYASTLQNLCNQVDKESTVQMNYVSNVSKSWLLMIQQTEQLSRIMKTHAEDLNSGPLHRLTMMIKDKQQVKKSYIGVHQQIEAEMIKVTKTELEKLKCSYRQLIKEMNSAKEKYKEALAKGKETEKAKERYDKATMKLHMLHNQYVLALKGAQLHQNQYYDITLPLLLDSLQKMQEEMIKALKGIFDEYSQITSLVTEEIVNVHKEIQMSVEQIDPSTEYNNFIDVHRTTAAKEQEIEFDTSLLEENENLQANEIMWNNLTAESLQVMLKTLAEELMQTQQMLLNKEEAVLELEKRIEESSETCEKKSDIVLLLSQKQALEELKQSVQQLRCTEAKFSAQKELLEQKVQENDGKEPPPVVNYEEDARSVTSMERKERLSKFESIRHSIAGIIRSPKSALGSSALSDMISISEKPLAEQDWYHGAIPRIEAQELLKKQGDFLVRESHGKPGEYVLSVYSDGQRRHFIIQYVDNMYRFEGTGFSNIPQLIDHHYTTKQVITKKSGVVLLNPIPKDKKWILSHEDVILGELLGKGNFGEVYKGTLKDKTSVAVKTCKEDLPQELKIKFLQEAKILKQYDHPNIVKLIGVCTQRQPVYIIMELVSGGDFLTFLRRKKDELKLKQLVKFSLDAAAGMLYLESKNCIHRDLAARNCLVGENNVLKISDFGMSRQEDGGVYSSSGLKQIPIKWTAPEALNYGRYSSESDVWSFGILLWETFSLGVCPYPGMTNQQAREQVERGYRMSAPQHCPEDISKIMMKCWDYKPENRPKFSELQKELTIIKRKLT

[5] = biological target: T2, Mitogen-activated protein kinase kinase kinase 3 (Homo sapiens) (UniProt Q99759); assay: Inhibition of human MEKK3 at 1.82 nM by HotSpot assay relative to control
T2 sequence (whole entry): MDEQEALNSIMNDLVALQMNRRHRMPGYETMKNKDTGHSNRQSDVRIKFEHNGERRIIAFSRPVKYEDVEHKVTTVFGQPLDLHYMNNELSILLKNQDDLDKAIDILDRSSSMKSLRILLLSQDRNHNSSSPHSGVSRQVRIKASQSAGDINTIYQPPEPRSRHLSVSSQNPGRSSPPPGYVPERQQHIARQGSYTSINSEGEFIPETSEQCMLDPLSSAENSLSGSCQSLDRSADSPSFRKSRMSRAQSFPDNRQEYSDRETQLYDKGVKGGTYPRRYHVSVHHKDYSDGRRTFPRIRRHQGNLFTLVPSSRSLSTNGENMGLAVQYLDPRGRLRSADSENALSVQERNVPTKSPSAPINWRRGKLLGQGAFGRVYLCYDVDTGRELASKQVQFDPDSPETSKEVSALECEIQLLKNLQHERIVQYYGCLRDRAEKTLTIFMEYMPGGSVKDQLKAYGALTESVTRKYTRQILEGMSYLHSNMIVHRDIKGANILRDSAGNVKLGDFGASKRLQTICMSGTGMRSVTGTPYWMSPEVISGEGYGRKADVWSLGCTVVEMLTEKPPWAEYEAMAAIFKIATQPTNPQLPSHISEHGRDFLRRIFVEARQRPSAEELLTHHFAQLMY

[6] = biological target: T3, Serine/threonine-protein kinase 4 (Homo sapiens) (UniProt Q13043); assay: Inhibition of human STK4 at 1.82 nM by HotSpot assay relative to control
T3 sequence (whole entry): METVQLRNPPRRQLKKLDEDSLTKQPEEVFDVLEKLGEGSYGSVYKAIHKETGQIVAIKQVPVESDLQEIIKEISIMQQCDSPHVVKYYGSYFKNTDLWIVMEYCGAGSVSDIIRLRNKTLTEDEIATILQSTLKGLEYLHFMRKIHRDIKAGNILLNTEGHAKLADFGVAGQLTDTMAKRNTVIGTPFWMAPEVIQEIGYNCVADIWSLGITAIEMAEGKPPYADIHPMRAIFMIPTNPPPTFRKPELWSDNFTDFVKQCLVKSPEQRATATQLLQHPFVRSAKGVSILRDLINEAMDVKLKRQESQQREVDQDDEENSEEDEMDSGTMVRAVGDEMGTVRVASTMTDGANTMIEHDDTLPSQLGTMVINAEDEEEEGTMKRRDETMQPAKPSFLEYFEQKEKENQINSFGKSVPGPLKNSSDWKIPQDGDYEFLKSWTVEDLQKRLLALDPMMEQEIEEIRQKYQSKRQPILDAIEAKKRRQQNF

[7] = biological target: T4, Protein kinase C zeta type (Homo sapiens) (UniProt Q05513); assay: Inhibition of human PKCzeta at 1.82 nM by HotSpot assay relative to control
T4 sequence (whole entry): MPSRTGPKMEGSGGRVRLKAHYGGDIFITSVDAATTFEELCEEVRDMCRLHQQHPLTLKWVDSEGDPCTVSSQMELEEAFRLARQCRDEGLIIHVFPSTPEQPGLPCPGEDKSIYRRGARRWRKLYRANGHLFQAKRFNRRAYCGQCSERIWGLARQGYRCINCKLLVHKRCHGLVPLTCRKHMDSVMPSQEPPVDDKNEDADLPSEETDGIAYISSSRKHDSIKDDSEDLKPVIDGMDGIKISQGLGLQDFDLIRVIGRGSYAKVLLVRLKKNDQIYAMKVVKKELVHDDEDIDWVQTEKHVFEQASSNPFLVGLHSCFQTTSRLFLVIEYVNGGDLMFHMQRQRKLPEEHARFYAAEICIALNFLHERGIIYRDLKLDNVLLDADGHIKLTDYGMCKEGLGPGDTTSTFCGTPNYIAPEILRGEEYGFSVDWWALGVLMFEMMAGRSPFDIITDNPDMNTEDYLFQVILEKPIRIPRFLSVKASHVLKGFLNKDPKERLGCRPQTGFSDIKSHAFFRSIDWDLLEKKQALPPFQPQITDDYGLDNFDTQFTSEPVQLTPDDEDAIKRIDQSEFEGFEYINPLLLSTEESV

Sequence of Insulin receptor-related protein (Homo sapiens) (P14616 27-742 limits assumed): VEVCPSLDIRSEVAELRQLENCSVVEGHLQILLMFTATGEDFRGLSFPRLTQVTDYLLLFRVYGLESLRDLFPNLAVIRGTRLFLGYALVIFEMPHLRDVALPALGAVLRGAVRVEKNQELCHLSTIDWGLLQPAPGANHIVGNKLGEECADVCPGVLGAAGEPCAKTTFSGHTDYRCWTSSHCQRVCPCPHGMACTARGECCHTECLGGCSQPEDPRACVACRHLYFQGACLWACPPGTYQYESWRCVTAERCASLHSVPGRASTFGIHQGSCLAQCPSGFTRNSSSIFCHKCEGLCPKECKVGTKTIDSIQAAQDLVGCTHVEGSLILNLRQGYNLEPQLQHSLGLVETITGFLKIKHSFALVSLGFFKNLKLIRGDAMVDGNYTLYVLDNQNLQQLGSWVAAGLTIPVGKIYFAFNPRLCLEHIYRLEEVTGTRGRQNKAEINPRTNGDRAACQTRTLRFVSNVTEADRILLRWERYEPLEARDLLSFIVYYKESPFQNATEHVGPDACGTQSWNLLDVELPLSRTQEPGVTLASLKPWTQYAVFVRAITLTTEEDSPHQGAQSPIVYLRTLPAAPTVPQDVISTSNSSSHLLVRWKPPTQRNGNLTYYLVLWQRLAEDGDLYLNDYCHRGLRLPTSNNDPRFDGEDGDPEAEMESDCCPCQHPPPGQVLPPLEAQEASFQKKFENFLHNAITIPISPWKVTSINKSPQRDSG
Sequence of Insulin receptor-related protein (Homo sapiens) (P14616 747-1297 limits assumed): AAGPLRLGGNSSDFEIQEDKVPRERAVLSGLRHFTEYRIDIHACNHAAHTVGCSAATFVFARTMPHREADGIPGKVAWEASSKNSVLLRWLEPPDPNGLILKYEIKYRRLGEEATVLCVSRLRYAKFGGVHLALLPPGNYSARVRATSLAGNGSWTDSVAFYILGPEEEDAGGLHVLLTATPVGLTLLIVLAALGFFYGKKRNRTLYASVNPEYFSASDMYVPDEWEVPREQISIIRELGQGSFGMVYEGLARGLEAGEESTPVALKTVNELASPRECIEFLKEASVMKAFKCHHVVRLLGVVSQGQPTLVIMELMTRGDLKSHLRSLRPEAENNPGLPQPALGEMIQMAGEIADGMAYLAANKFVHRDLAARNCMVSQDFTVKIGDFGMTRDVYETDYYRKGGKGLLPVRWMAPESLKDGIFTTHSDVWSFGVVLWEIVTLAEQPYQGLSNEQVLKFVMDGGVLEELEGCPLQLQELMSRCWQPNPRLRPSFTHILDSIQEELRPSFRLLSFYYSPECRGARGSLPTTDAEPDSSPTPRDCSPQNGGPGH
Sequence of Calcium/calmodulin-dependent protein kinase type II subunit beta (Homo sapiens) (Q13554 whole entry): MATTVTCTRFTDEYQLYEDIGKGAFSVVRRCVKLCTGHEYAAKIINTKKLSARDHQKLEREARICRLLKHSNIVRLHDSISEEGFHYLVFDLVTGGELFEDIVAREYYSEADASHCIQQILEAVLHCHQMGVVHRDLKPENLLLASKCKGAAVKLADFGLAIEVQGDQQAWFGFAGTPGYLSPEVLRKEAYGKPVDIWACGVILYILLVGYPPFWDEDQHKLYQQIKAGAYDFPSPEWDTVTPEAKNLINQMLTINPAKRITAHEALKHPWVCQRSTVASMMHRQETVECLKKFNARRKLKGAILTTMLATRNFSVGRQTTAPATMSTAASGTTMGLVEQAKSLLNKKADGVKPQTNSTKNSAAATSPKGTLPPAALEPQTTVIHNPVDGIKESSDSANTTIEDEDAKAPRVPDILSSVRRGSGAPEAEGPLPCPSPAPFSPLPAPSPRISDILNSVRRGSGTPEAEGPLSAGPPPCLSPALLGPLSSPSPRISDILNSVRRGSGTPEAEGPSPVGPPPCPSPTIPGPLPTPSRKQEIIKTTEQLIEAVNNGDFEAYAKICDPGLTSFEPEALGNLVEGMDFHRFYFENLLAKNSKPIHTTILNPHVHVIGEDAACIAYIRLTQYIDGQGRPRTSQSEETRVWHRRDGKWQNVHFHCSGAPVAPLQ

inhibition [1] [%] | inhibition [2] [%] | inhibition [3] [%] | inhibition [4] [%] | inhibition [5] [%] | inhibition [6] [%] | inhibition [7] [%] | SMILES
-1.75 | 100 |  |  |  |  |  | C[C@]1(O)C[C@@H](c2nc(-c3ccc4ccc(-c5ccccc5)nc4c3)c3c(N)nccn32)C1
 |  | 2.2 | -2.54 | -2.8 | 9.85 | -1.74 | C[C@@]1(C(=O)Nc2ccc(F)nc2)CCCN1c1nc(Nc2cc(C3CC3)n[nH]2)c2cccn2n1

From ChEMBL document CHEMBL5653615 (J Biol Chem, 2013)
